The test has as its target T1, BRM (Homo sapiens, UniProt P51531).
T1 construct: Western Blot Screen of BRM Degradation in SW1573 Cells; endogenous in cells; host or cells: SW1573 cells
As to the kind of experiment: BRM degradation (Dmax and DC50) in SW1573 cells, Western blot screen / In-Cell Western screen. The class given is cell-based. The note with it: overnight (18-20 hours) treatment; for Dmax: read-out: Dmax (%)** (% degraded). An outline of the steps: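 SW1573 cells were treated with compound for 18–20 h (final 0.1% DMSO). BRM was quantified either by Western blot of RIPA lysates or by fixed-cell In-Cell Western (LI-COR, 800/680 nm), each normalised to alpha-tubulin, giving Dmax and DC50.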
In general terms: In western blotting, separated proteins are transferred to a membrane and probed.

Structures are written as SMILES. Some results are limits rather than exact numbers.

T1 sequence (P51531 whole entry): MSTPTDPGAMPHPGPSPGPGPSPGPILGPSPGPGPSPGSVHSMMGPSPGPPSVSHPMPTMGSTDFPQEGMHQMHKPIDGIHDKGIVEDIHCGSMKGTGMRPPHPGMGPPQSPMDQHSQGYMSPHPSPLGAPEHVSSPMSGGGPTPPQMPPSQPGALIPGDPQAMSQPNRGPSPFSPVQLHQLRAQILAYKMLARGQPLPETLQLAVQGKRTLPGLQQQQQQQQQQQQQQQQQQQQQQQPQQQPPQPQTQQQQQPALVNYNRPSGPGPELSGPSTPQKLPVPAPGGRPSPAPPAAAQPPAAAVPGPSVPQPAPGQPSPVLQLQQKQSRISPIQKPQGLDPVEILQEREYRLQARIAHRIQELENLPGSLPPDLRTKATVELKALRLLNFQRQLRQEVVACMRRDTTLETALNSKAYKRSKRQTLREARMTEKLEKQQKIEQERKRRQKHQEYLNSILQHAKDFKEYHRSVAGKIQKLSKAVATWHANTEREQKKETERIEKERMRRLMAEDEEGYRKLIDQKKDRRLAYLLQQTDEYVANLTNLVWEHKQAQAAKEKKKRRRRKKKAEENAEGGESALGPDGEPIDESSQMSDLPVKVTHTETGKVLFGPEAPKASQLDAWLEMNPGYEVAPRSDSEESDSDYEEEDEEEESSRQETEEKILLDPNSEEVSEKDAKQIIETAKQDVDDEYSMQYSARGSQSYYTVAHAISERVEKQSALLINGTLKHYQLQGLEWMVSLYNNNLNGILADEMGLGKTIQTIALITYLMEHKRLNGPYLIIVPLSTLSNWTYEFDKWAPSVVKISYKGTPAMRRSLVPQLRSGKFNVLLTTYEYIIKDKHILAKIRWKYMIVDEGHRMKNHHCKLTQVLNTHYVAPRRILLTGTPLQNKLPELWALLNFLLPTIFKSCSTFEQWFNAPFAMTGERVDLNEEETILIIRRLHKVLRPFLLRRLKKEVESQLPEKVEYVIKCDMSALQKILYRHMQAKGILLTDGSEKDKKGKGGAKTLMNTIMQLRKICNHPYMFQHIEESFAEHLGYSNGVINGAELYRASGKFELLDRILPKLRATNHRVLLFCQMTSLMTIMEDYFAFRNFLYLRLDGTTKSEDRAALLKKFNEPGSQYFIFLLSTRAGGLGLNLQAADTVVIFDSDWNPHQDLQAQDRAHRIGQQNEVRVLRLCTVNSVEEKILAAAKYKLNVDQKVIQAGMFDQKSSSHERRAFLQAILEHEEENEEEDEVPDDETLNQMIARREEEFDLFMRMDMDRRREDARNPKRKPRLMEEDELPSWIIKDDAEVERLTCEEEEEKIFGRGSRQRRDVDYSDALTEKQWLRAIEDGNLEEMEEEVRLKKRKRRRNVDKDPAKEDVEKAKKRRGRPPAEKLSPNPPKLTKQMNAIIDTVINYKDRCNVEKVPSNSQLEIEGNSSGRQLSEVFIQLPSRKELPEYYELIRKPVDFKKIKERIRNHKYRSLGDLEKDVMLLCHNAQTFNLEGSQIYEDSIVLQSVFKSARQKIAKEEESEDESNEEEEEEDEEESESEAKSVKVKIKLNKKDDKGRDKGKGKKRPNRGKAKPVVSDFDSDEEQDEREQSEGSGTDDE

Consider `Cc1ncsc1-c1ccc([C@H](C)NC(=O)[C@@H]2C[C@@H](O)CN2C(=O)[C@H](c2cc(OCCOC(=O)N3CCC(O[C@H]4C[C@H](Oc5cc(N6C7CCC6CN(c6cc(-c8ccccc8O)nnc6N)C7)ccn5)C4)CC3)no2)C(C)C)cc1` [Compound 134, 2-({5-[(2S)-1-[(2S,4R)-4-hydroxy-2-{[(1S)-1-[4-(4-methyl-1,3-thiazol-5-yl)phenyl]ethyl]carbamoyl}pyrrolidin-1-yl]-3-methyl-1-oxobutan-2-yl]-1,2-oxazol-3-yl}oxy)ethyl 4-[(1r,3r)-3-[(4-{3-[3-amino-6-(2-hydroxyphenyl)pyridazin-4-yl]-3,8-diazabicyclo[3.2.1]octan-8-yl}pyridin-2-yl)oxy]cyclobutoxy]piperidine-1-carboxylate], for which the DC50 (commonly the midpoint of the concentration-degradation curve) was at least 30 nM.
In turn, `Cc1ncsc1-c1ccc([C@H](C)NC(=O)[C@@H]2C[C@@H](O)CN2C(=O)[C@H](c2cc(N3CCC(O[C@H]4CC[C@H](Oc5cc(N6C7CCC6CN(c6cc(-c8ccccc8O)nnc6N)C7)ccn5)CC4)CC3)no2)C(C)C)cc1` [Compound 135, (2S,4R)-4-hydroxy-N-[(1S)-1-[4-(4-methyl-1,3-thiazol-5-yl)phenyl]ethyl]-1-[(2S)-3-methyl-2-[3-(4-{[(1r,4r)-4-[(4-{3-[3-amino-6-(2-hydroxyphenyl)pyridazin-4-yl]-3,8-diazabicyclo[3.2.1]octan-8-yl}pyridin-2-yl)oxy]cyclohexyl]oxy}piperidin-1-yl)-1,2-oxazol-5-yl]butanoyl]pyrrolidine-2-carboxamide] gave a DC50 of at least 30 nM.
Take `Cc1ncsc1-c1ccc([C@H](C)NC(=O)[C@@H]2C[C@@H](O)CN2C(=O)[C@@H](c2cc(N3CCC(O[C@H]4CC[C@H](Oc5cc(N6C7CCC6CN(c6cc(-c8ccccc8O)nnc6N)C7)ccn5)CC4)CC3)no2)C(C)C)cc1` [Compound 136, (2S,4R)-4-hydroxy-N-[(1S)-1-[4-(4-methyl-1,3-thiazol-5-yl)phenyl]ethyl]-1-[(2R)-3-methyl-2-[3-(4-{[(1r,4r)-4-[(4-{3-[3-amino-6-(2-hydroxyphenyl)pyridazin-4-yl]-3,8-diazabicyclo[3.2.1]octan-8-yl}pyridin-2-yl)oxy]cyclohexyl]oxy}piperidin-1-yl)-1,2-oxazol-5-yl]butanoyl]pyrrolidine-2-carboxamide]: the DC50 was below 2.5 nM and the maximal degradation (Dmax) (usually the largest share of the target that was removed) was above 75%.
For the compound `CC(C)[C@H](C(=O)N1C[C@H](O)C[C@H]1C(=O)N[C@@H](C)c1ccc(C#N)cc1)c1cc(N2CCC(C(=O)N3CCC(O[C@H]4C[C@H](Oc5cc(N6C7CCC6CN(c6cc(-c8ccccc8O)nnc6N)C7)ccn5)C4)CC3)CC2)no1` [Compound 137, (2S,4R)-N-[(1S)-1-(4-cyanophenyl)ethyl]-4-hydroxy-1-[(2S)-3-methyl-2-[3-(4-{4-[(1r,3r)-3-[(4-{3-[3-amino-6-(2-hydroxyphenyl)pyridazin-4-yl]-3,8-diazabicyclo[3.2.1]octan-8-yl}pyridin-2-yl)oxy]cyclobutoxy]piperidine-1-carbonyl}piperidin-1-yl)-1,2-oxazol-5-yl]butanoyl]pyrrolidine-2-carboxamide], the half-maximal degradation concentration (DC50) is at least 30 nM.
In the case of `CC(C)[C@@H](C(=O)N1C[C@H](O)C[C@H]1C(=O)N[C@@H](C)c1ccc(C#N)cc1)c1cc(N2CCC(C(=O)N3CCC(O[C@H]4C[C@H](Oc5cc(N6C7CCC6CN(c6cc(-c8ccccc8O)nnc6N)C7)ccn5)C4)CC3)CC2)no1` [Compound 138, (2S,4R)-N-[(1S)-1-(4-cyanophenyl)ethyl]-4-hydroxy-1-[(2R)-3-methyl-2-[3-(4-{4-[(1r,3r)-3-[(4-{3-[3-amino-6-(2-hydroxyphenyl)pyridazin-4-yl]-3,8-diazabicyclo[3.2.1]octan-8-yl}pyridin-2-yl)oxy]cyclobutoxy]piperidine-1-carbonyl}piperidin-1-yl)-1,2-oxazol-5-yl]butanoyl]pyrrolidine-2-carboxamide], the DC50 was below 2.5 nM and the Dmax is above 75%.
